The values that follow come from ChEMBL document CHEMBL4477209, “Indole-2-carboxamide-based MmpL3 Inhibitors Show Exceptional Antitubercular Activity in an Animal Model of Tuberculosis Infection” (J Med Chem, 2016).

Converted amounts (≈) assume the structure as drawn.

The test system of assay [1] is Mycobacterium tuberculosis. The assay is described as follows: Inhibition of MmpL3 in clinical isolates of isoniazid/rifampin resistant Mycobacterium tuberculosis V2475 after 7 to 14 days by alamar blue assay. Background: Alamar Blue is a resazurin reagent that responds to reducing activity.
Assay [2] has as its system Mycobacterium tuberculosis. The assay is described as follows: Inhibition of MmpL3 in clinical isolates of extensively drug resistant Mycobacterium tuberculosis TF274 after 7 to 14 days by alamar blue assay.
The subject of assay [3] is Mycobacterium tuberculosis. The assay is described as follows: Inhibition of MmpL3 in clinical isolates of extensively drug resistant Mycobacterium tuberculosis R506 after 7 to 14 days by alamar blue assay.
For assay [4], the system named is Mycobacterium tuberculosis. Nature of the assay: Inhibition of MmpL3 in clinical isolates of isoniazid/rifampin resistant Mycobacterium tuberculosis KZN494 after 7 to 14 days by alamar blue assay.
Assay [5] has as its system Mycobacterium tuberculosis H37Rv. The assay is described as follows: Inhibition of MmpL3 TSK54R mutant in Mycobacterium tuberculosis H37Rv assessed as growth inhibition.

As to `O=C(NC1CCCCCCC1)c1cc2c(Cl)cc(Cl)cc2[nH]1`, the MIC in assay [1] is 11 µM (≈ 3.73 µg/mL); in assay [2], 11 µM (≈ 3.73 µg/mL); in assay [3] it was 6 µM (≈ 2.04 µg/mL).

For `C[C@@H]1[C@H]2C[C@@H](C[C@H]1NC(=O)c1cc3c(Cl)cc(Cl)cc3[nH]1)C2(C)C`, the MIC turned out to be 43 µM (≈ 15.7 µg/mL) in assay [4], 171 µM (≈ 62.5 µg/mL) in assay [1], 21 µM (≈ 7.67 µg/mL) in assay [2] and 21 µM (≈ 7.67 µg/mL) in assay [3].

In the case of `C[C@@H]1[C@H]2C[C@@H](C[C@H]1NC(=O)c1cc3c(F)cc(F)cc3[nH]1)C2(C)C`, the MIC was 0.0625 to 0.125 µg/mL (≈ 0.188 to 0.376 µM) in assay [5]; 12 µM (≈ 3.99 µg/mL) in assay [4]; 47 µM (≈ 15.6 µg/mL) in assay [1]; 6 µM (≈ 1.99 µg/mL) in assay [2]; 12 µM (≈ 3.99 µg/mL) in assay [3].
